Results from patent US6468537B1, “Localization of major peptide autoepitopes for nucleosome specific T cells of systemic lupus erythematosus” (The Board of Trustees of Northwestern University, priority 1999, dated 2002).

Assays:
[1] = test system: pathogenic Th clones from SNF1 mice; assay: Stimulation of nucleosome-specific pathogenic Th clones from SNF1 mice by eluted/synthetic peptides; assay type: cell-based, mouse; conditions: A20 or splenic B+Mφ as APC
Description: Fresh splenic, CD4^+ T cells (5×10^5/well) were co-cultured in triplicate wells at an initial concentration of 5×10^5 cells per well, with 10^6 cells per well of either irradiated B+Mφ or mitomycin-C treated A20 APC. Varying concentrations of either control or test peptides were added and the cultures were adjusted to 200 microliters final volume of HL-1 serum-free medium (Hycor Biomedical Inc., Irvine, Calif.) cultures were incubated for 96 hours in flat bottom 96-well plates, and at 18 hours prior to harvesting the cells, 1 microcurie of 3H-Thymidine was added to each well. The incorporated radioactivity was measured by scintillation counting. The Stimulation Index (SI) was calculated by dividing the mean counts per minute (cpm) incorporated in co-cultures of T cells and APC with test peptide by the mean cpm incorporated in control peptide co-cultures. In the case of cytokine assays, experiments were carried out as described for the proliferation assays except that the culture supernatants were removed from duplicate co-culture wells after 24-46 hours of incubation and cytokine assays were performed.
An aliquot of 50 microliters from each HPLC fraction was assayed for stimulating ability as described above. Four characterized Th clones were used as indicators of cytokine secretion (IL-2 and/or IL-4) in response to the peptide fractions, using A20 or splenic B+Mψ as APCs (Adams, et al., 1991, Proc. Natl. Acad. Sci. USA 88:11271-11275; Shi, et al., 1998, J. Exp. Med. 187:367-378). […] Only two out of one hundred fractions tested were able to stimulate Th cell clones. […] The latter was further separated as described, and tested for active fractions of HPLC purified peptides.. Three naturally processed and presented, stimulatory epitopes were identified using these procedures. The sequences of the peptides are as follows: SQKEEEEGAQREKE (EP-1, SEQ ID NO: 23); DWMEEEHGAQREKE (EP-2, SEQ ID NO: 24); and […] (EP-3, or H522-42, SEQ ID NO: 25). The first two peptides were homologous to sequences in a transcription factor, BRN-3, which is identical in chicken, mice and humans (GenBank). […] EP-1 is highly homologous to EP-2, but it also matched a sequence in cytomegalovirus envelope protein at aa position 57-70. Most likely these peptides are derived from some transcription factor in the chromatin that was incubated with the APC. The third sequence (EP-3) was derived from histone H5 (aa position 22-42) in chicken nucleosome, which is homologous to histone H1 sequence of mice and humans at amino acid position 22-42 ([…], SEQ ID NO:26). […] Therefore, the mouse H122-42 is the autoantigenic peptide in mice and is also referred to herein as EP-3. Nested sequences and unrelated sequences that were obtained in the active fractions from the eluates were also synthesized and re-tested.

[2] = test system: Th clones 1D12, 5E9, 3F6, 1G1; assay: Helper assay: Th clones co-cultured with splenic B cells from SNF1 mice in presence of peptide; assay type: cell-based, mouse; conditions: responder Th clones 5E9 and 3F6
Description: IgG autoantibodies to ssDNA, dsDNA, histones, and nucleosomes were quantitated using an ELISA as described previously (Mohan, et al., 1995, J. Immunol., 154:1470-1480; Mohan, et al., 1993, J. Exp. Med. 177:1367-1381; Burlingame, et al., 1993, J. Clin. Invest. 91:1687-1696; Losman, et al., 1992, J. Immunol., 148:1561-1569). Sera were diluted 1:100 and heat-inactivated before use. Serum from normal BALB/c mice were used as negative control. Anti-DNA mAbs 564 and 205 were used to generate standard curves (Adams, et al., 1991, Proc. Natl. Acad. Sci. USA 88:11281-11275; Mohan, et al., 1995, J. Immunol., 154:1470-1480; Mohan, et al., 1993, J. Exp. Med. 177:1367-1381; Sainis and Datta, 1988, J. Immunol. 140:2215-2224). For IgG autoantibodies to ssDNA, histones and nucleosomes, 1 unit per milliliter was considered to be equivalent to the activity of one microgram per milliliter of mAb 564, which recognizes all three autoantigens (Mohan, et al., 1995, J. Immunol., 154:1470-1480; Mohan, et al., 1993, J. Exp. Med. 177:1367-1381), and for IgG anti-dsDNA, 1 unit per milliliter was equivalent to the binding of 0.6 micrograms per milliliter of the mAb 205.
After seven days of co-culture, the supernatants were assayed for IgG antibodies to the autoantigens (ds-DNA, ss-DNA, nucleosome, and histone) by ELISA. […]

SNF1 mice = assay: Acceleration of SLE-associated nephritis by immunization with eluted peptides in adjuvant; assay type: in vivo, mouse
Text: The animals received three more injections at two weeks interval with 50 micrograms of either an eluted peptide or the control peptide absorbed on alum (Pierce Chemical Co., Rockford, Ill.).

With “STDHPKYSDMIVAAIQAEKNR (Histone fragment) [H122-42]” the “stimulation of pathogenic Th clones” value [1] was “equivalent to the chicken H52242 peptide”, the “stimulation of pathogenic Th clones” value ([1]; listed as EP-3) was “stimulatory” and the “augmentation of autoantibody-inducing help” value [2] was “almost as much as the whole nucleosome”. The “development of severe nephritis” value (SNF1 mice; by 28 weeks of age) was “all the EP-3 immunized mice developed severe nephritis”, the “onset/rate of disease relative to control group (CFA alone or OVA peptide in CFA)” value (SNF1 mice; immunization from 12 weeks) was “developed severe nephritis earlier” and the “time to severe nephritis in some immunized animals” value (SNF1 mice; just after the first booster immunization) was 2-3 weeks. The “mice succumbed to severe lupus nephritis” value (SNF1 mice; within four weeks of the first injection, peptide in CFA) was “Eighty percent”.
